pIC50: −log10 of the molar value.
System: HBV cccDNA (HBeAg as surrogate marker) in HepDES19 cells
Assay: Engineered HepDES19 primary screen assay (HBeAg as surrogate marker for cccDNA)
Type: cell-based
Conditions: Hepatitis B virus, HepDES19, 120 h
Text: The assay was employed to screen for cccDNA inhibitors. HepDES19 is a cccDNA-producing cell line. In this cell line, HBeAg in the cell culture supernatant as surrogate marker, as HBeAg production depends on cccDNA level and activity. HepDES19 is an engineered cell line which contains a 1.1 unit length HBV genome, and pgRNA transcription from the transgene is controlled by Tetracycline (Tet). In the absence of Tet, pgRNA transcription will be induced, but HBV e antigen (HBeAg) could not be produced from this pgRNA due to very short leader sequence before the HBeAg start codon and the start codon is disrupted. Only after cccDNA is formed, the missing leader sequence and start codon mutation would be restored from the 3′-terminal redundancy of pgRNA, and then HBeAg could be synthesized. Therefore, HBeAg could be used as a surrogate marker for cccDNA (Zhou, T. et al., Antiviral Res. (2006), 72 (2), 116-124; Guo, H. et al., J. Virol. (2007), 81 (22), 12472-12484).
HepDES19 cells were seeded at 2×10^6 cells per T150 flask and cultured with the culture medium (Dulbecco's Modified Eagle Medium: Nutrient Mixture F-12 [DMEM-F12, Gibco Cat. 11320-82], 10% Fetal Bovine Serum [FBS, Clontech Cat. 631101], 0.1 mM Non-Essential Amino Acids Solution [NEAA, Gibco Cat. 11140-050], 50 μg/mL Penicillin-Streptomycin [PS, Invitrogen Cat. 15140-163], 500 μg/mL Geneticin [G418, Invitrogen Cat. 10131-027]) containing 3 μg/mL Tet (Sigma, Cat. 87128) for 5 days. Cells were then seeded at 4×10^6 cells per T150 in the same culture medium as described above in the absence of Tet for 8 days. Cells were then harvested and frozen at density of 2×10^6 cells per mL. For compound testing, the frozen cells were thawed and seeded into 96-well plates at a density of 6×10^4 cells per well. At 24 hours after seeding, half log serial dilutions of compounds made with Dimethyl sulfoxide (DMSO, Sigma, Cat. D2650) were further diluted with the same culture medium as described above before they were added to the cells to reach desired final compound concentrations and 1% DMSO concentration. Plates were then incubated at 37° C. for another 5 days before measurement of HBeAg level and cell viability. Intracellular HBeAg level were measured with enzyme-linked immunosorbent assay (ELISA) kit (Shanghai Kehua Diagnostic Medical Products Co., Ltd). Cell viability was assessed using Cell Counting Kit-8 (DonJindo, Cat. CK04-20). IC50 values were derived from the dose-response curve using 4 parameters logistic curve fit method.
The compounds of the present invention were tested for their capacity to inhibit extracellular HBeAg level as described herein.

NS(=O)(=O)N[C@H](COc1cc(C(F)(F)F)ccc1[C@H]1CC(=O)c2cccc(Cl)c2O1)C(=O)O [Example 30-B, (2R)-3-[2-[(2R)-8-chloro-4-oxo-chroman-2-yl]-5-(trifluoromethyl)phenoxy]-2-(sulfamoylamino)propanoic Acid]
pIC50: 4.97

Cc1ccc(C2CC(=O)c3cccc(Cl)c3O2)c(OCCCOCC(=O)O)c1 (centres unmarked) [Example 22, 2-[3-[2-(8-chloro-4-oxo-chroman-2-yl)-5-methyl-phenoxy]propoxy]acetic Acid]
pIC50: 5.70

CC(C)(COc1cc(C(F)(F)F)ccc1C1CC(=O)c2cccc(Cl)c2O1)C(=O)O (centres unmarked) [Example 19, 3-[2-(8-chloro-4-oxo-chroman-2-yl)-5-(trifluoromethyl)phenoxy]-2,2-dimethyl-propanoic Acid]
pIC50: 6.59

O=C(O)C(=O)NCCOc1cc(Cl)ccc1C1CC(=O)c2cccc(Cl)c2O1 (centres unmarked) [Example 36, 2-[2-[5-chloro-2-(8-chloro-4-oxo-chroman-2-yl)phenoxy]ethylamino]-2-oxo-acetic Acid]
pIC50: 4.89

Cc1cc(C2CC(=O)c3cccc(Cl)c3O2)c(OCCC(=O)O)cc1Br (centres unmarked) [Example 7, 3-[5-bromo-2-(8-chloro-4-oxo-chroman-2-yl)-4-methyl-phenoxy]propanoic Acid]
pIC50: 5.03

COc1ccc2c(c1Cl)OC(c1ccc(C(F)(F)F)cc1OCCC(=O)O)CC2=O (centres unmarked) [Example 4, 3-[2-(8-chloro-7-methoxy-4-oxo-chroman-2-yl)-5-(trifluoromethyl)phenoxy]propanoic Acid]
pIC50: 5.28

O=C(O)CCOc1cc(Br)ccc1[C@@H]1CC(=O)c2cccc(Cl)c2O1 [Example 16-A, 3-[5-bromo-2-[(2S)-8-chloro-4-oxo-chroman-2-yl]phenoxy]propanoic Acid]
pIC50: 5.61

O=C(O)CCOc1cc(Br)ccc1[C@H]1CC(=O)c2cccc(Cl)c2O1 [Example 16-B, 3-[5-bromo-2-[(2R)-8-chloro-4-oxo-chroman-2-yl]phenoxy]propanoic Acid]
pIC50: 6.32

COc1cc(C2CC(=O)c3cccc(Cl)c3O2)c(OCCC(=O)O)cc1Cl (centres unmarked) [Example 10, 3-[5-chloro-2-(8-chloro-4-oxo-chroman-2-yl)-4-methoxy-phenoxy]propanoic Acid]
pIC50: 4.94

COc1cc(OCCC(=O)O)c(C2CC(=O)c3cccc(Cl)c3O2)cc1C (centres unmarked) [Example 9, 3-[2-(8-chloro-4-oxo-chroman-2-yl)-5-methoxy-4-methyl-phenoxy]propanoic Acid]
pIC50: 5.03

CCNS(=O)(=O)N[C@H](COc1cc(C(F)(F)F)ccc1[C@@H]1CC(=O)c2cccc(Cl)c2O1)C(=O)O [Example 31-A, (2R)-3-[2-[(2S)-8-chloro-4-oxo-chroman-2-yl]-5-(trifluoromethyl)phenoxy]-2-(ethylsulfamoylamino)propanoic acid]
pIC50: 5.48

O=C(O)COCCOc1cc(C(F)(F)F)ccc1C1CC(=O)c2cccc(Cl)c2O1 (centres unmarked) [Example 21, 2-[2-[2-(8-chloro-4-oxo-chroman-2-yl)-5-(trifluoromethyl)phenoxy]ethoxy]acetic Acid]
pIC50: 5.31

O=C1CC(c2ccc(C(F)(F)F)cc2OC2CC(C(=O)O)C2)Oc2c(Cl)cccc21 (centres unmarked) [Example 17, 3-[2-(8-chloro-4-oxo-chroman-2-yl)-5-(trifluoromethyl)phenoxy]cyclobutanecarboxylic Acid]
pIC50: 5.81

CCNS(=O)(=O)N[C@H](COc1cc(C(F)(F)F)ccc1[C@H]1CC(=O)c2cccc(Cl)c2O1)C(=O)O [Example 31-B, (2R)-3-[2-[(2R)-8-chloro-4-oxo-chroman-2-yl]-5-(trifluoromethyl)phenoxy]-2-(ethylsulfamoylamino)propanoic Acid]
pIC50: 4.96

O=C1CC(c2ccc(C(F)(F)F)cc2OCCOC2CC(C(=O)O)C2)Oc2c(Cl)cccc21 (centres unmarked) [Example 20, 3-[2-[2-(8-chloro-4-oxo-chroman-2-yl)-5-(trifluoromethyl)phenoxy]ethoxy]cyclobutanecarboxylic Acid]
pIC50: 8.00

COCCCOc1cc(C(F)(F)F)ccc1C1CC(=O)c2ccc(F)c(Cl)c2O1 (centres unmarked) [Example 32, 8-chloro-7-fluoro-2-[2-(3-methoxypropoxy)-4-(trifluoromethyl)phenyl]chroman-4-one]
pIC50: 5.71

O=C(O)COc1cc(C(F)(F)F)ccc1C1CC(=O)c2ccc(F)c(Cl)c2O1 (centres unmarked) [Example 26, 2-[2-(8-chloro-7-fluoro-4-oxo-chroman-2-yl)-5-(trifluoromethyl)phenoxy]acetic Acid]
pIC50: 5.56

O=C(O)COCCCOc1cc(C(F)(F)F)ccc1C1CC(=O)c2cccc(Cl)c2O1 (centres unmarked) [Example 23, 2-[3-[2-(8-chloro-4-oxo-chroman-2-yl)-5-(trifluoromethyl)phenoxy]propoxy]acetic Acid]
pIC50: 5.81

O=C(O)CCCOc1cc(C(F)(F)F)ccc1C1CC(=O)c2ccc(F)c(Cl)c2O1 (centres unmarked) [Example 25, 4-[2-(8-chloro-7-fluoro-4-oxo-chroman-2-yl)-5-(trifluoromethyl)phenoxy]butanoic Acid]
pIC50: 5.93

CCS(=O)(=O)N[C@H](COc1cc(C(F)(F)F)ccc1C1CC(=O)c2cccc(Cl)c2O1)C(=O)OC (stereo partly drawn) [Example 27, Methyl (2R)-3-[2-(8-chloro-4-oxo-chroman-2-yl)-5-(trifluoromethyl)phenoxy]-2-(ethylsulfonylamino)propanoate]
pIC50: 6.24

O=C(O)COCCCOc1cc(C(F)(F)F)ccc1C1CC(=O)c2ccc(F)c(Cl)c2O1 (centres unmarked) [Example 24, 2-[3-[2-(8-chloro-7-fluoro-4-oxo-chroman-2-yl)-5-(trifluoromethyl)phenoxy]propoxy]acetic Acid]
pIC50: 5.15

O=C1CC(c2ccc(Br)cc2O[C@H]2C[C@@H](C(=O)O)C2)Oc2c(Cl)cccc21 (stereo partly drawn) [Example 37, cis-3-[5-bromo-2-(8-chloro-4-oxo-chroman-2-yl)phenoxy]cyclobutanecarboxylic Acid]
pIC50: 6.17

Cc1cc(C2CC(=O)c3cccc(Cl)c3O2)c(OCCC(=O)O)cc1Cl (centres unmarked) [Example 14, 3-[5-chloro-2-(8-chloro-4-oxo-chroman-2-yl)-4-methyl-phenoxy]propanoic Acid]
pIC50: 5.98

O=C(O)CCOc1cc2c(cc1C1CC(=O)c3cccc(Cl)c3O1)OCO2 (centres unmarked) [Example 12, 3-[[6-(8-chloro-4-oxo-chroman-2-yl)-1,3-benzodioxol-5-yl]oxy]propanoic Acid]
pIC50: 5.00

O=C1CC(c2ccc(C(F)(F)F)cc2OCCO)Oc2c1ccc(F)c2Cl (centres unmarked) [Example 34, 8-chloro-7-fluoro-2-[2-(2-hydroxyethoxy)-4-(trifluoromethyl)phenyl]chroman-4-one]
pIC50: 5.47

O=C1CC(c2ccc(C(F)(F)F)cc2OCCCO)Oc2c1ccc(F)c2Cl (centres unmarked) [Example 33, 8-chloro-7-fluoro-2-[2-(3-hydroxypropoxy)-4-(trifluoromethyl)phenyl]chroman-4-one]
pIC50: 6.17

Cc1cc(C2CC(=O)c3cccc(Cl)c3O2)c(OC2CC(C(=O)O)C2)cc1Cl (centres unmarked) [Example 18, 3-[5-chloro-2-(8-chloro-4-oxo-chroman-2-yl)-4-methyl-phenoxy]cyclobutanecarboxylic Acid]
pIC50: 6.12

COc1cc(C2CC(=O)c3cccc(Cl)c3O2)c(OCCC(=O)O)cc1Br (centres unmarked) [Example 8, 3-[5-bromo-2-(8-chloro-4-oxo-chroman-2-yl)-4-methoxy-phenoxy]propanoic Acid]
pIC50: 4.95

NS(=O)(=O)N[C@H](COc1cc(C(F)(F)F)ccc1[C@@H]1CC(=O)c2cccc(Cl)c2O1)C(=O)O [Example 30-A, (2R)-3-[2-[(2S)-8-chloro-4-oxo-chroman-2-yl]-5-(trifluoromethyl)phenoxy]-2-(sulfamoylamino)propanoic Acid]
pIC50: 5.47

CCS(=O)(=O)N[C@@H](COc1cc(C(F)(F)F)ccc1C1CC(=O)c2cccc(Cl)c2O1)C(=O)O (stereo partly drawn) [Example 29, (2S)-3-[2-(8-chloro-4-oxo-chroman-2-yl)-5-(trifluoromethyl)phenoxy]-2-(ethylsulfonylamino)propanoic Acid]
pIC50: 5.72

COc1cc(Cl)c2c(c1)C(=O)CC(c1ccc(C(F)(F)F)cc1OCCC(=O)O)O2 (centres unmarked) [Example 5, 3-[2-(8-chloro-6-methoxy-4-oxo-chroman-2-yl)-5-(trifluoromethyl)phenoxy]propanoic Acid]
pIC50: 5.51

O=C(O)CCOc1cc(C(F)(F)F)ccc1C1CC(=O)c2c(O)ccc(Cl)c2O1 (centres unmarked) [Example 6, 3-[2-(8-chloro-5-hydroxy-4-oxo-chroman-2-yl)-5-(trifluoromethyl)phenoxy]propanoic Acid]
pIC50: 5.28

— patent publication US20220388972A1, “CHROMAN-4-ONE DERIVATIVES FOR THE TREATMENT AND PROPHYLAXIS OF HEPATITIS B VIRUS INFECTION” (Hoffmann-La Roche Inc., priority 2018, published 2022)
